Where “and” joins values, the source holds several entries; their conditions need not be identical. Identical values can stand only once.
How the values were obtained:
Experiment in all cases: Two-electrode voltage-clamp of ACh-induced currents in Xenopus oocytes
Format in all cases: cell-based
[1] = target: (α4G613L)3(β2)2 nAChR (Homo sapiens, UniProt P43681, G613L)
Protocol: (§1) For amino acid substitutions within the α4 nAChR subunit, point mutations were introduced into pSP64ployA plasmid with cDNA encoding for human α4 nAChR subunit with mutagenic primer pairs using the Quick Change II Site-Directed Mutagenesis Kit (Agilent Technologies) then confirmed by DNA sequencing (GENEWIZ, LLC, South Plainfield, NJ). cRNA transcripts suitable for oocyte expression were prepared in vitro from linearized plasmids [α3 (BamH1), α4 (AseI), β2 (PvuII), β4 (XhoI)] using mMESSAGE mMACHINE high yield capped RNA transcription kits (Ambion) and purified on NucAway Spin column (Invitrogen). cRNA concentration was determined by spectroscopy (Concentration (ug/ul) = Abs260 * 40), aliquoted and stored at −80 °C until used.
(§2) Ovarian lobules were surgically harvested from oocytes-positive female Xenopus laevis (NASCO, Fort Atkinson, WI) according to an animal use protocol approved by the Texas A&M Health Sciences Center Institutional Animals Care and Use Committee. The Texas A&M Health Sciences Center Research Facility is registered as an animal research facility with the United States Department of Agriculture and is fully accredited by the American Association for Accreditation of Laboratory Animal Care (AAALAC). For oocytes defolliculation, ovarian lobes were treated with 3 mg/ml collagenase type 2 (Worthington Biomedical, Lakewood, NJ) in Ca + 2-free buffer (85 mM NaCl, 2.5 mM KCl, 1 mM MgCl2, 5 mM HEPES, pH 7.6). Collagenase treatment was allowed to proceed for 3 hours at room temperature with gentle shaking then oocytes were washed several times with buffer to remove collagenase then with ND96-gentamicine buffer. Healthy Stage V and VI oocytes were visually selected and maintained at 18 °C in modified ND96-gentamicine buffer (96 mM NaCl, 2 mM KCl, 1.8 mM CaCl2, 1 mM MgCl2, 5 mM HEPES, 50 µg/ml gentamicin, pH 7.6). Oocytes were injected with 50–100 ng of the desired nAChR subunits cRNA mix at ratios of 8α:1β or 1α:8β to express nAChRs with subunit stoichiometries of 3α:2β (low agonist sensitivity) or 2α:3β (high agonist sensitivity), respectively.
(§3) Oocytes were continuously perfused with recording buffer (100 mM NaCl, 2 mM KCl, 1 mM CaCl2, 0.8 mM MgCl2, 1 mM EGTA, 10 mM Hepes, pH 7.5) except during periods of drug applications.

[2] = target: T1, (α4C254S)3(β2)2 nAChR (Homo sapiens, UniProt P17787+P43681, C254S)
T1 construct: expressed in transfected cells; host or cells: Xenopus laevis oocytes injected with cRNA
Protocol: as §1, §2, §3

[3] = target: T2, (α4F606Y)3(β2)2 nAChR (Homo sapiens, UniProt P17787+P43681, F606Y)
T2 construct: expressed in transfected cells; host or cells: Xenopus laevis oocytes injected with cRNA
Protocol: as §1, §2, §3

[4] = target: T3, (α4M605V)3(β2)2 nAChR (Homo sapiens, UniProt P17787+P43681, M605V)
T3 construct: expressed in transfected cells; host or cells: Xenopus laevis oocytes injected with cRNA
Protocol: as §1, §2, §3

[5] = target: T4, (α4H332Y)3(β2)2 nAChR (Homo sapiens, UniProt P17787+P43681, H332Y)
T4 construct: expressed in transfected cells; host or cells: Xenopus laevis oocytes injected with cRNA
Protocol: as §1, §2, §3

[6] = target: (α4L256F)3(β2)2 nAChR (Homo sapiens, UniProt P43681, L256F)
Protocol: as §1, §2, §3

[7] = target: T5, (α4I608L)3(β2)2 nAChR (Homo sapiens, UniProt P17787+P43681, I608L)
T5 construct: expressed in transfected cells; host or cells: Xenopus laevis oocytes injected with cRNA
Protocol: as §1, §2, §3

[8] = target: T6, (α4T261D)3(β2)2 nAChR (Homo sapiens, UniProt P17787+P43681, T261D)
T6 construct: expressed in transfected cells; host or cells: Xenopus laevis oocytes injected with cRNA
Protocol: as §1, §2, §3

[9] = target: T7, (α4I315A)3(β2)2 nAChR (Homo sapiens, UniProt P17787+P43681, I315A)
T7 construct: expressed in transfected cells; host or cells: Xenopus laevis oocytes injected with cRNA
Protocol: as §1, §2, §3

[10] = target: T8, (α4M605I)3(β2)2 nAChR (Homo sapiens, UniProt P17787+P43681, M605I)
T8 construct: expressed in transfected cells; host or cells: Xenopus laevis oocytes injected with cRNA
Protocol: as §1, §2, §3

[11] = target: (α4E308V)3(β2)2 nAChR (Homo sapiens, UniProt P43681, E308V)
Protocol: as §1, §2, §3

[12] = target: T9, (α4I607T)3(β2)2 nAChR (Homo sapiens, UniProt P17787+P43681, I607T)
T9 construct: expressed in transfected cells; host or cells: Xenopus laevis oocytes injected with cRNA
Protocol: as §1, §2, §3

[13] = target: T10, (α4)2(β2)3 nAChR (Homo sapiens, UniProt P17787+P43681)
T10 construct: expressed in transfected cells; host or cells: Xenopus laevis oocytes injected with cRNA
Protocol: To begin to characterize LY2087101 interaction with the heteropentameric α4β2 nAChRs, we examined the selectivity of LY2087101 for the two α4β2 nAChR isoforms; high-agonist sensitivity (α4)2(β2)3 and low-agonist sensitivity (α4)3(β2)2 nAChRs. Xenopus oocytes were injected with α4 and β2 subunits RNAs at ratios 8:1 and 1:8 to favor expression of (α4)3(β2)2 and (α4)2(β2)3 nAChRs, respectively.
as §2, §3

[14] = 10 µM ACh + 1 µM PAM vs 10 µM ACh alone
[15] = ACh concentration-response curve, normalized to 1 mM ACh alone
[16] = read-out: LY2087101 potentiation EC50
[17] = normalized to peak current by 10 µM ACh alone, curve fit

T3 sequence (P43681 29-627 M605V limits assumed): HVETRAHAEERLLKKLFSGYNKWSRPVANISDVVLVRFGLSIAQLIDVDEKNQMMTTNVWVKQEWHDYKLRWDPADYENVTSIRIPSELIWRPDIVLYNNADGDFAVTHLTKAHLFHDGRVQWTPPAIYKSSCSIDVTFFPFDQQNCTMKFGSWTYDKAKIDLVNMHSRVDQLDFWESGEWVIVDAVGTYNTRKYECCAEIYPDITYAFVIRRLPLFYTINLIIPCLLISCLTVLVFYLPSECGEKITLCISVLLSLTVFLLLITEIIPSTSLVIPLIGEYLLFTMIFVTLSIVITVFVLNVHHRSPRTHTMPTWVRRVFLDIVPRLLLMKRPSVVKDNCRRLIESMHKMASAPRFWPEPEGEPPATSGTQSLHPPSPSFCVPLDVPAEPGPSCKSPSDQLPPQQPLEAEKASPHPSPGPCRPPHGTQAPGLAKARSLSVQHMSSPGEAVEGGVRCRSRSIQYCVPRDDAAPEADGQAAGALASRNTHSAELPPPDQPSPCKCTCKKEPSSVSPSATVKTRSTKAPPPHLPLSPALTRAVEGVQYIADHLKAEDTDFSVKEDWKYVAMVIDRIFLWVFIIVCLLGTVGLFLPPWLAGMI
T3 sequence (P17787 26-502): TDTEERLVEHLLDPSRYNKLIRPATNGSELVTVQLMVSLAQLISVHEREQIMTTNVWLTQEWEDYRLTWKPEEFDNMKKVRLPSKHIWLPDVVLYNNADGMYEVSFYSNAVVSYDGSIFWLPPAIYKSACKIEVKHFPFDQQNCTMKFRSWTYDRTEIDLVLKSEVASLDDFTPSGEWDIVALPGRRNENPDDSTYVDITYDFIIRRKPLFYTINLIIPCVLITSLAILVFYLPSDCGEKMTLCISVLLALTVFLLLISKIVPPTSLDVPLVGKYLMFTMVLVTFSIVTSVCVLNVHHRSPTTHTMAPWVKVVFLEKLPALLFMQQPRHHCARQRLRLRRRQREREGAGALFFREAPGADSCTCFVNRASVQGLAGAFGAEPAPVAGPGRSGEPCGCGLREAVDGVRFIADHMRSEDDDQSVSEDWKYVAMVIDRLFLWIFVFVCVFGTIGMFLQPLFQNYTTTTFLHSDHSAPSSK
T7 sequence (P43681 29-627 I315A limits assumed): as the sequence (P43681 29-627 M605V limits assumed) above, with I287A, V577M counted along it
T7 sequence (P17787 26-502): as the sequence (P17787 26-502) above
(α4E308V)3(β2)2 nAChR, sequence (P43681 29-627 E308V limits assumed): as the sequence (P43681 29-627 M605V limits assumed) above, with E280V, V577M counted along it
(α4E308V)3(β2)2 nAChR, sequence (P17787 26-502 partner): as the sequence (P17787 26-502) above
T1 sequence (P43681 29-627 C254S limits assumed): as the sequence (P43681 29-627 M605V limits assumed) above, with C226S, V577M counted along it
T1 sequence (P17787 26-502): as the sequence (P17787 26-502) above
T5 sequence (P43681 29-627 I608L limits assumed): as the sequence (P43681 29-627 M605V limits assumed) above, with V577M, I580L counted along it
T5 sequence (P17787 26-502): as the sequence (P17787 26-502) above
T4 sequence (P43681 29-627 H332Y limits assumed): as the sequence (P43681 29-627 M605V limits assumed) above, with H304Y, V577M counted along it
T4 sequence (P17787 26-502): as the sequence (P17787 26-502) above
T8 sequence (P43681 29-627 M605I limits assumed): as the sequence (P43681 29-627 M605V limits assumed) above, with V577I counted along it
T8 sequence (P17787 26-502): as the sequence (P17787 26-502) above
T2 sequence (P43681 29-627 F606Y limits assumed): as the sequence (P43681 29-627 M605V limits assumed) above, with V577M, F578Y counted along it
T2 sequence (P17787 26-502): as the sequence (P17787 26-502) above
T9 sequence (P43681 29-627 I607T limits assumed): as the sequence (P43681 29-627 M605V limits assumed) above, with V577M, I579T counted along it
T9 sequence (P17787 26-502): as the sequence (P17787 26-502) above
T6 sequence (P43681 29-627 T261D limits assumed): as the sequence (P43681 29-627 M605V limits assumed) above, with T233D, V577M counted along it
T6 sequence (P17787 26-502): as the sequence (P17787 26-502) above
T10 sequence (P43681 29-627 limits assumed): as the sequence (P43681 29-627 M605V limits assumed) above, with V577M counted along it
T10 sequence (P17787 26-502): as the sequence (P17787 26-502) above
(α4G613L)3(β2)2 nAChR, sequence (P43681 29-627 G613L limits assumed): as the sequence (P43681 29-627 M605V limits assumed) above, with V577M, G585L counted along it
(α4G613L)3(β2)2 nAChR, sequence (P17787 26-502 partner): as the sequence (P17787 26-502) above
(α4L256F)3(β2)2 nAChR, sequence (P43681 29-627 L256F limits assumed): as the sequence (P43681 29-627 M605V limits assumed) above, with L228F, V577M counted along it
(α4L256F)3(β2)2 nAChR, sequence (P17787 26-502 partner): as the sequence (P17787 26-502) above

Structure (SMILES): Cc1nc(Nc2ccc(F)cc2)sc1C(=O)c1ccsc1 [LY2087101, [2-[(4-Fluorophenyl)amino]-4-methyl-5-thiazolyl]-3-thienylmethanone]
- R, potentiation ratio (PR) [1, 14]: 1.09 ± 0.1
- ACh Imax in the presence of 1 µM LY2087101 [1, 15]: 112 ± 9%
- R, potentiation ratio (PR) [2, 14]: 8.4 ± 1.5
- ACh Imax in the presence of 1 µM LY2087101 [2, 15]: 185 ± 04%
- EC50 [2, 16]: 1.7 ± 0.2 µM
- R, potentiation ratio (PR) [3, 14]: 2.3 ± 0.3
- ACh Imax in the presence of 1 µM LY2087101 [3, 15]: 144 ± 13% and 144 ± 013%
- LY2087101 potentiation Imax% [3, 17]: 195 ± 13%
- EC50 [3, 16]: 0.3 ± 0.2 µM
- R, potentiation ratio (PR) [4, 14]: 3.8 ± 1.1
- LY2087101 potentiation Imax% [4, 17]: 856 ± 3%
- EC50 [4, 16]: 2.7 ± 0.02 µM
- R, potentiation ratio (PR) [5, 14]: 4.2 ± 0.5
- LY2087101 potentiation Imax% [5, 17]: 573 ± 20%
- EC50 [5, 16]: 1.3 ± 0.1 µM
- R, potentiation ratio (PR) [6, 14]: 1.0 ± 0.1
- ACh Imax in the presence of 1 µM LY2087101 [6, 15]: 104 ± 09%
- R, potentiation ratio (PR) [7, 14]: 4.4 ± 0.6
- LY2087101 potentiation Imax% [7, 17]: 840 ± 31%
- EC50 [7, 16]: 1.2 ± 0.1 µM
- R, potentiation ratio (PR) [8, 14]: 1.6 ± 0.1
- ACh Imax in the presence of 1 µM LY2087101 [8, 15]: 180 ± 23%
- LY2087101 potentiation Imax% [8, 17]: 215 ± 29%
- EC50 [8, 16]: 2.4 ± 1.6 µM
- R, potentiation ratio (PR) [9, 14]: 2.5 ± 0.2
- LY2087101 potentiation Imax% [9, 17]: 405 ± 5%
- EC50 [9, 16]: 1.2 ± 0.5 µM
- R, potentiation ratio (PR) [10, 14]: 4.5 ± 0.2
- LY2087101 potentiation Imax% [10, 17]: 756 ± 27%
- EC50 [10, 16]: 0.8 ± 0.1 µM
- R, potentiation ratio (PR) [11, 14]: 1.7 ± 0.2
- LY2087101 potentiation Imax% ([11]; normalized to 10 µM ACh alone, not from curve fitting, maximum seen at any concentration up to 10 µM LY2087101): 270 ± 30%
- R, potentiation ratio (PR) [12, 14]: 5.8 ± 0.7
- LY2087101 potentiation Imax% [12, 17]: 958 ± 32%
- EC50 [12, 16]: 0.8 ± 0.1 µM
- ACh Imax in the presence of 1 µM LY2087101 [13, 15]: 189 ± 2% and ~190%
- EC50 ([13]; co-applied with 10 µM ACh, HS WT, read-out: LY2087101 potentiation EC50): 1.9 ± 0.04 µM

— article PMC5775429, “LY2087101 and dFBr share transmembrane binding sites in the (α4)3(β2)2 Nicotinic Acetylcholine Receptor” (Scientific Reports, 2018)
